Source: patent US10167266B2, “Sodium channel blockers” (Parion Sciences, Inc., priority 2002, dated 2019)
Several values for one entry are separate records, joined by “and”; a condition that tells them apart may be missing. Identical values can stand only once. Counter-ions that a name gives are not always drawn.

Tested on: sodium channel (ENaC), canine bronchial epithelia
Experiment: Sodium channel blocking activity: inhibition of short circuit current (ISC) in airway epithelial monolayers in Ussing chambers
Assay type: cell-based
Conditions: for Fold Enhancement Over Amiloride / Fold Amiloride*: potency in canine bronchial epithelia relative to amiloride; for Fold potency relative to amiloride: Example 51
Method: One assay used to assess mechanism of action and/or potency of the compounds of the present invention involves the determination of lumenal drug inhibition of airway epithelial sodium currents measured under short circuit current (ISC) using airway epithelial monolayers mounted in Ussing chambers. Cells obtained from freshly excised human, dog, sheep or rodent airways are seeded onto porous 0.4 micron Snapwell™ Inserts (CoStar), cultured at air-liquid interface (ALI) conditions in hormonally defined media, and assayed for sodium transport activity (ISC) while bathed in Krebs Bicarbonate Ringer (KBR) in Using chambers. All test drug additions are to the lumenal bath with half-log dose addition protocols (from 1×10^−11 M to 3×10^−5 M), and the cumulative change in ISC (inhibition) recorded. All drugs are prepared in dimethyl sulfoxide as stock solutions at a concentration of 1×10^−2 M and stored at −20° C. Eight preparations are typically run in parallel; two preparations per run incorporate amiloride and/or benzamil as positive controls. After the maximal concentration (5×10^−5 M) is administered, the lumenal bath is exchanged three times with fresh drug-free KBR solution, and the resultant ISC measured after each wash for approximately 5 minutes in duration. Reversibility is defined as the percent return to the baseline value for sodium current after the third wash. All data from the voltage clamps are collected via a computer interface and analyzed off-line.
Dose-effect relationships for all compounds are considered and analyzed by the Prism 3.0 program. IC50 values, maximal effective concentrations, and reversibility are calculated and compared to amiloride and benzamil as positive controls.
Amiloride was also tested in this assay as a positive control. The results for the compounds of the present invention are reported as fold-enhancement values relative to amiloride.

SMILES: N=C(NCCc1ccc(N)cc1)NC(=O)c1nc(Cl)c(N)nc1N [drawing 47: n=2, 4, NH2, 4-(4-Aminophenyl)ethylamidino-3,5-diamino-6-chloropyrazinecarboxamide hydrochloride]
- Fold Enhancement Over Amiloride (Example 28): 12.7 fold

SMILES: CC1(C)OCC(COc2ccc(CCCCNC(=N)NC(=O)c3nc(Cl)c(N)nc3N)cc2)O1 (stereo not drawn) [drawing 48: R=H3CxCH3*, 4-[4-(2,2 Dimethyl-[1,3]dioxolan-4 yl)methyloxyphenyl]butylamidino-3,5-diamino-6-chloropyrazinecarboxamide]
- Fold Enhancement Over Amiloride (Example 29): 91 fold

SMILES: Cl.N=C(NCCCCc1ccc(OCC(O)CO)cc1)NC(=O)c1nc(Cl)c(N)nc1N (stereo not drawn) [drawing 48: R=H, 4-[4(2,3-Dihydroxypropyloxyl)phenyl]butylamidino-3,5-diamino-6-chloropyrazinecarboxamide hydrochloride]
- Fold Enhancement Over Amiloride (Example 29): 124 fold
- Fold Amiloride* (Example 47): 51.95 (50) fold
- Fold Amiloride* (Example 48): 51.95 (79) fold
- Fold Amiloride* (Example 50): 51.55 (79) fold

SMILES: CC(=O)OCC(COc1ccc(CCCCNC(=N)NC(=O)c2nc(Cl)c(N)nc2N)cc1)OC(C)=O (stereo not drawn) [drawing 48: R=drawing 49, 4-[4-(2,3-Diacetoxypropyloxy)phenyl]butylamidino-3,5-diamino-6-chloropyrazinecarboxamide]
- Fold Enhancement Over Amiloride (Example 29): 36 fold

SMILES: COCCOc1ccc(CCCCNC(=N)NC(=O)c2nc(Cl)c(N)nc2N)cc1.Cl [drawing 50: n=1, 4-[4-(1,4-Dioxapent-1-yl)phenyl]butylamidino-3,5-diamino-6-chloropyrazinecarboxamide hydrochloride]
- Fold Enhancement Over Amiloride (Example 30): 87 fold
- Fold Amiloride* (Example 48): 51.5 ± 14.9 (2) fold

SMILES: COCCOCCOc1ccc(CCCCNC(=N)NC(=O)c2nc(Cl)c(N)nc2N)cc1 [drawing 50: n=2, 4-[4-(1,4,7-Trioxaoct-1-yl)phenyl]-butyl amidino-3,5-diamino-6-chloropyrazinecarboxamide hydrochloride]
- Fold Enhancement Over Amiloride (Example 30): 42 fold
- Fold Amiloride* (Example 48): 76.1 (1) fold

SMILES: COCCOCCOCCOCCOc1ccc(CCCCNC(=N)NC(=O)c2nc(Cl)c(N)nc2N)cc1.Cl [drawing 50: n=4, 4-[4-(1,4,7,10,13-pentoxatetradec-1-yl)phenyl]-butylamidino-3,5-diamino-6-chloropyrazinecarboxamide hydrochloride]
- Fold Enhancement Over Amiloride (Example 30): 28.7 fold

SMILES: COC(=O)C1OC(Oc2ccc(CCCCNC(N)=NC(=O)c3nc(Cl)c(N)nc3N)cc2)C(OC(C)=O)C(OC(C)=O)C1OC(C)=O (stereo not drawn) [drawing 51: R^5=40, 4-[4-(Methyl-2,3,4-tri-O-acetyl-glucopyranonuronate-1-O-yl)phenyl]butylamidino-3,5-diamino-6-chloropyrazinecarboxamide]
- Fold Enhancement Over Amiloride (Example 31): 65 fold

SMILES: Cl.N=C(NCCCCc1ccc(CO)cc1)NC(=O)c1nc(Cl)c(N)nc1N [drawing 51: R^5=—CH2OH, 4-(4-Hydroxymethylphenyl)butylamidino-3,5-diamino-6-chloropyrazinecarboxamide hydrochloride]
- Fold potency relative to amiloride: 50.9 ± 19.8 (3)
- Fold Enhancement Over Amiloride (Example 31): 57 fold
- Fold Amiloride* (Example 41): 50.9 ± 19.8 (3) fold
- Fold Amiloride* (Example 44): 50.9 ± 19.8 (3) fold

SMILES: COC(=O)c1ccc(CCCCNC(=N)NC(=O)c2nc(Cl)c(N)nc2N)cc1 [drawing 51: R^5=—CO2CH3, 4-(4-Carboxymethylphenyl)butylamidino-3,5-diamino-6-chloropyrazinecarboxamide hydrochloride]
- Fold Enhancement Over Amiloride (Example 31): 26.5 fold

SMILES: NC(=NC(=O)c1nc(Cl)c(N)nc1N)NCCCCc1ccc(OC2OC(C(=O)O)C(O)C(O)C2O)cc1 (stereo not drawn) [drawing 51: R^5=—O-Glucuronide Na^+ Salt, 4-[4-(5-Carboxy-glucopyranonuronate-1-O-yl)-phenyl]butylamidino-3,5-diamino-6-chloropyrazinecarboxamide]
- Fold Enhancement Over Amiloride (Example 31): 11.2 fold

SMILES: NC(=NC(=O)c1nc(Cl)c(N)nc1N)NCCCCc1ccc(OS(=O)(=O)O)cc1 [drawing 51: R^5=—O—SO3H, 4-(4-Sulfatephenyl)butylamidino-3,5-diamino-6-chloropyrazinecarboxamide]
- Fold Enhancement Over Amiloride (Example 31): 27.7 fold

SMILES: N=C(NCCCCc1ccc(N)cc1)NC(=O)c1nc(Cl)c(N)nc1N [drawing 60: R=NH2, N=0, 4-[4-(4-Amino)phenyl)]butylamidino-3,5-diamino-6-chloropyrazinecarboxamide hydrochloride]
- Fold potency relative to amiloride: 32.6 ± 2
- Fold Amiloride* (Example 41): 32.6 ± 2.0 (3) fold
- Fold Amiloride* (Example 43): 32.6 ± 2 (3) fold
- Fold Amiloride* (Example 48): 32.6 ± 2 (3) ^ fold

SMILES: N=C(NCCCCc1ccc(CCO)cc1)NC(=O)c1nc(Cl)c(N)nc1N [drawing 60: R=OH, N=2, 4-(4-(2-Hydroxyethyl)phenyl)butylamidino-3,5-diamino-6-chloropyrazinecarboxamide hydrochloride]
- Fold Amiloride* (Example 41): 79.2 ± 30.6 (4) fold
- Fold Amiloride* (Example 47): 79.2 ± 30.6 (4) fold

SMILES: N=C(NCCCCc1ccc(OCCN)cc1)NC(=O)c1nc(Cl)c(N)nc1N [drawing 61: R=NH2, n=2, 4-[4-(2-aminoethyloxy)phenyl)butylamidino-3,5-diamino-6-chloropyrazinecarboxamide hydrochloride]
- Fold potency relative to amiloride: 56.5 ± 0
- Fold Amiloride* (Example 42, hydrochloride): 60.1 ± 1.3 (2) fold and 56.5 ± 0 (4) ^ fold
- Fold Amiloride* (Example 45): 56.5 ± 24 (4) fold
- Fold Amiloride* (Example 48): 84.9 ± 30.3 (6) fold

SMILES: Cl.NC(=NCCCCc1ccc(OCCO)cc1)NC(=O)c1nc(Cl)c(N)nc1N [drawing 61: R=OH, n=2]
- Fold potency relative to amiloride: 84.9 ± 30.3
- Fold Amiloride* (Example 42): 84.9 ± 30.3 (6) fold
- Fold Amiloride* (Example 47): 84.9 ± 30.3 (6) fold
- Fold Amiloride* (Example 50): 80.3 ± 25.5 (9) fold

SMILES: N=C(NCCCCc1ccc(OCCCO)cc1)NC(=O)c1nc(Cl)c(N)nc1N [drawing 61: R=OH, n=3, 4-[4-(3-Hydroxypropyloxy)phenyl)]butylamidino-3,5-diamino-6-chloropyrazinecarboxamide hydrochloride]
- Fold potency relative to amiloride: 105.2 ± 26.6
- Fold Amiloride* (Example 47): 105.2 ± 26.6 (7) fold

SMILES: Cl.NC(=NCCCCc1ccc(OCCCO)cc1)NC(=O)c1nc(Cl)c(N)nc1N [drawing 61: R=OH, n=3]
- Fold Amiloride* (Example 42): 105.2 ± 26.6 (7) fold

SMILES: N=C(NCCCCc1ccc(C(=O)NCCO)cc1)NC(=O)c1nc(Cl)c(N)nc1N [drawing 62: X=C═O, Y=NH(CH2)2—OH, 4-{4-[N-(3,5-diamino-6-chloropyrazine-2-carbonyl)guanidino]butyl}-N-(2-hydroxyethyl)benzamide hydrochloride]
- Fold Amiloride* (Example 43): 28.5 (1) fold

SMILES: CC(C)(C)OC(=O)NCCOc1ccc(CCCCNC(N)=NC(=O)c2nc(Cl)c(N)nc2N)cc1 [drawing 64: X=NHCO2(CH3)3, [2-(4-{4-[N′-(3,5-Diamino-6-chloropyrazine-2-carbonyl)guanidino]butyl}phenoxy)ethyl]-carbamic acid tert-butyl ester]
- Fold Amiloride* (Example 45): 51.7 ± 10.1 (2) fold
- Fold Amiloride* (Example 49): 51.7 ± 10.1 (2) fold

SMILES: N=C(NCCCCc1ccc(OCC(N)=O)cc1)NC(=O)c1nc(Cl)c(N)nc1N [drawing 65: R=—NH2, 2-{4-[N′-(3,5-diamino-6-chloropyrazine-2-carbonyl)guanidino]-4-butylphenoxy}acetamide hydrochloride]
- Fold Amiloride* (Example 46): 48.2 ± 24.1 (7) fold

SMILES: Cl.Cl.N=C(NCCCCc1ccc(OCCNC[C@H](O)[C@H](O)CO)cc1)NC(=O)c1nc(Cl)c(N)nc1N [drawing 67: O CH2 CH2 NH R^a, N-[4-(4-{2-[(2S,3R)-2,3,4-trihydroxybutylamino]ethoxy}phenyl)butyl]-N′-(3,5-diamino-6-chloropyrazine-2-carbonyl)guanidine dihydrochloride]
- Fold Amiloride* (Example 48): 52.9 ± 14.3 (5) fold

SMILES: Cl.Cl.N=C(NCCCCc1ccc(OCCN(C[C@H](O)[C@H](O)CO)C[C@H](O)[C@H](O)CO)cc1)NC(=O)c1nc(Cl)c(N)nc1N [drawing 67: O CH2 CH2 NR R^a,c (r13), N-[4-(4-{2-[bis-((2S,3R)-2,3,4-trihydroxybutyl)amino]ethoxy}phenyl)butyl]-N′-(3,5-diamino-6-chloropyrazine-2-carbonyl)guanidine dihydrochloride]
- Fold Amiloride* (Example 48): 73.2 ± 49.3 (9) fold

SMILES: CCOC(=O)COc1ccc(CCCCNC(N)=NC(=O)c2nc(Cl)c(N)nc2N)cc1 [drawing 68: OCH2CO2ET, (4-{4-[N′-(3,5-Diamino-6-chloropyrazine-2-carbonyl)guanidino]butyl}phenoxy)acetic acid ethyl ester]
- Fold Amiloride* (Example 49): 20 (1) fold

SMILES: N=C(NCCCCc1cccc(OCC(O)CO)c1)NC(=O)c1nc(Cl)c(N)nc1N (stereo not drawn) [drawing 69: R=CH2OH, Meta, 4-[3-(2-,3-Dihydroxypropyloxyl)phenyl)]butylamidino-3,5-diamino-6-chloropyrazinecarboxamide hydrochloride]
- Fold Amiloride* (Example 50): 40 (1) fold
